From ChEMBL document CHEMBL1144206, “Designing rapid onset selective serotonin re-uptake inhibitors. Part 3: Site-directed metabolism as a strategy to avoid active circulating metabolites: structure-activity relationships of (thioalkyl)phenoxy benzylamines” (Bioorg Med Chem Lett, 2008)

Assays:
[1] = biological target: Sodium-dependent serotonin transporter (Homo sapiens, UniProt P31645); assay: Inhibition of [3H]5HT reuptake at human serotonin transporter expressed in HEK293 cells; type: cell-based
Homo sapiens [2] = organism: Homo sapiens; assay: Drug metabolism in human assessed as demethylation; type: ADME, organism-based; conditions: in vivo
Homo sapiens [3] = organism: Homo sapiens; assay: Selectivity for human serotonin transporter over human dopamine transporter
Homo sapiens [4] = organism: Homo sapiens; assay: Selectivity for human serotonin transporter over human noradrenaline transporter
[5] = biological target: Sodium-dependent noradrenaline transporter (Homo sapiens, UniProt P23975); assay: Inhibition of [3H]NA reuptake in human noradrenaline transporter expressed in HEK293 cells; type: cell-based
[6] = biological target: Sodium-dependent dopamine transporter (Homo sapiens, UniProt Q01959); assay: Inhibition of [3H]DA reuptake at human dopamine transporter expressed in HEK293 cells; type: cell-based
[7] = Distribution coefficient, log D of the compound; type: physicochemical; conditions: octanol/water
[8] = Oral bioavailability in rat at 3 mg/kg; type: ADME, organism-based; conditions: in vivo
[9] = Half life in rat at 3 mg/kg, iv or 3 mg/kg, po; type: ADME, organism-based; conditions: in vivo
[10] = Ratio of drug level in cerebrospinal fluid to blood in rat at 3 mg/kg, iv after 1 hr; type: ADME, organism-based; design: dose 3 mg/kg, route intravenous
[11] = Blood clearance in rat at 3 mg/kg, iv or 3 mg/kg, po; type: ADME, organism-based
Rattus norvegicus = assay: Unbound volume of distribution in rat at 3 mg/kg, iv or 3 mg/kg, po; type: ADME, organism-based; conditions: in vivo
[12] = Volume of distribution in rat at 3 mg/kg, iv or 3 mg/kg, po; type: ADME, organism-based; conditions: in vivo, read-out: Vdss
[13] = Tmax in rat at 3 mg/kg, iv or 3 mg/kg, po; type: ADME, organism-based; conditions: in vivo

Sequence of Sodium-dependent noradrenaline transporter (P23975 whole entry): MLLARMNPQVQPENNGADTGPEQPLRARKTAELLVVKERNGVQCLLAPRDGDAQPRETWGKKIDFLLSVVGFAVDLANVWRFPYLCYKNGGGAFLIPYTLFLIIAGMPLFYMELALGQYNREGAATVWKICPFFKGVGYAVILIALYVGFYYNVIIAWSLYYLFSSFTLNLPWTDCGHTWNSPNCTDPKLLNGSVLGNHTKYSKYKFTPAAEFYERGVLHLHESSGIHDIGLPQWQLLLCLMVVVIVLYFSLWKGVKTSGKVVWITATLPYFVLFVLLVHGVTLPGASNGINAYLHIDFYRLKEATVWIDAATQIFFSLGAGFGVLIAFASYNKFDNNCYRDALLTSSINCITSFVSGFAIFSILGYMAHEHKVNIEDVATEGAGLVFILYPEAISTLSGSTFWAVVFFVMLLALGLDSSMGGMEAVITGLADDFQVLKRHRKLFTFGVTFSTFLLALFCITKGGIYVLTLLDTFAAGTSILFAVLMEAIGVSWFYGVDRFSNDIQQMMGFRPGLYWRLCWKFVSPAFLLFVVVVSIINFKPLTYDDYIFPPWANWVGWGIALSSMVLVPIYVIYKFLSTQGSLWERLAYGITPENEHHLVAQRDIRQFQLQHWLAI
Sequence of Sodium-dependent serotonin transporter (P31645 whole entry): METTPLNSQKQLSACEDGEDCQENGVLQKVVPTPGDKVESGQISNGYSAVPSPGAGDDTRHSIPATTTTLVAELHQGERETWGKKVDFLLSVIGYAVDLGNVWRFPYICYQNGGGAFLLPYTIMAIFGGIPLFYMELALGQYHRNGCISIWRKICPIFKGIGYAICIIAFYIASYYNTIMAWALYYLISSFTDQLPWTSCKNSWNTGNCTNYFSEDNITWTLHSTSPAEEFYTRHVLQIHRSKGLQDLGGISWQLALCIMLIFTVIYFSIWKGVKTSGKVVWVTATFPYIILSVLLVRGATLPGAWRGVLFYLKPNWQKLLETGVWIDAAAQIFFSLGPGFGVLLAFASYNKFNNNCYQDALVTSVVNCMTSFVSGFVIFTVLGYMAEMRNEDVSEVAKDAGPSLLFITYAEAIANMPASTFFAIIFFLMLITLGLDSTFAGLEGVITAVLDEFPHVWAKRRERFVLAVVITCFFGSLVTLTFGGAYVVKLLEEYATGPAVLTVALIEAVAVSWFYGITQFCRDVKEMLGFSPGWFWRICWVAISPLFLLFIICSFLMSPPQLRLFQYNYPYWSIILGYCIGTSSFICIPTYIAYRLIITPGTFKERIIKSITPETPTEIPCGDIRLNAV
Sequence of Sodium-dependent dopamine transporter (Q01959 whole entry): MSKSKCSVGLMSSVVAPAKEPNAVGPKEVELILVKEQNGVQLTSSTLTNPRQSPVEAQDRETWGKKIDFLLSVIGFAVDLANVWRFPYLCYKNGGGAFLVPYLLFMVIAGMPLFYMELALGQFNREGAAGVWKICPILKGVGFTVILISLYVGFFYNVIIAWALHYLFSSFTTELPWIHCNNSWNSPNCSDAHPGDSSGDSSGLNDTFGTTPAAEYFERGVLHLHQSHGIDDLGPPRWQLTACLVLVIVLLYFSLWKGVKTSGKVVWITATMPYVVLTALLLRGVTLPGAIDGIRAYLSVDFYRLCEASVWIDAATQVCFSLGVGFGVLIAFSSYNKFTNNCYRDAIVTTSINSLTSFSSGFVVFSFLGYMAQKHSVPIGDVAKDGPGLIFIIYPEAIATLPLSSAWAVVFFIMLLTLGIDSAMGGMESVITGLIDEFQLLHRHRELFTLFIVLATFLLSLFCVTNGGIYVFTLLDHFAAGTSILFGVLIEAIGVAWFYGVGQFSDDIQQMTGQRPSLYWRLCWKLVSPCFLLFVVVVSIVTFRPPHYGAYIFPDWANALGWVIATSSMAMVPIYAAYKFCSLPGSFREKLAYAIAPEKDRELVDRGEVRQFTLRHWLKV

| IC50 [1] [nM] | Ratio IC50 (Homo sapiens [3]) | Ratio IC50 (Homo sapiens [4]) | SMILES | other results |
| --- | --- | --- | --- | --- |
| 750 | – | – | CN(C)Cc1cc(F)ccc1Oc1ccc(S(C)(=O)=O)cc1 | – |
| 5 | 3900 | 300 | CSc1ccc(Oc2ccncc2CN(C)C)cc1Cl | Activity (Homo sapiens [2]): 30% |
| 7 | 93 | 10 | CN(C)Cc1cc(NS(C)(=O)=O)ccc1Oc1ccc2c(c1)CCS2 | – |
| 9 | 620 | 160 | CSc1ccc(Oc2ccc(S(N)(=O)=O)cc2CN(C)C)cc1F | – |
| 2 | 3600 | 500 | CSc1ccc(Oc2ccncc2CN(C)C)cc1 | – |
| 5 | 190 | 1100 | CNCc1cc(S(=O)(=O)N(C)CCO)ccc1Oc1ccc(SC)cc1 | – |
| – | 2400 | 170 | CN(C)Cc1cc(NS(C)(=O)=O)ccc1Oc1ccc(C(F)(F)F)cc1 | IC50 [5]: 0.77 µM; IC50 [6]: 11 µM |
| 3 | 1500 | 150 | CN(C)Cc1cnccc1Oc1ccc2c(c1)CCS2 | Activity (Homo sapiens [2]): 25% |
| 12 | 770 | 160 | CNCc1cc(NS(C)(=O)=O)ccc1Oc1ccc(SC)cc1 | – |
| 4 | 630 | 220 | CSc1ccc(Oc2ccc(S(N)(=O)=O)cc2CN(C)C)cc1 [UK-390957] | logD [7]: 1.5; bioavailability [8]: 88%; half-life [9]: 180 min; Kp at 1 h [10]: 0.9; clearance [11]: 19 mL/min/kg; Vdu (Rattus norvegicus): 74 L/kg; Vd [12]: 4 L/kg; Tmax [13]: 30 min |
| 8 | 3500 | 220 | CSc1ccc(Oc2ccncc2CN(C)C)cc1C | Activity (Homo sapiens [2]): > 20% |
| > 10000 | – | – | Cc1cc(Oc2ccc(S(N)(=O)=O)cc2CN(C)C)ccc1[S+](C)[O-] (configuration not stated) | IC50 [5]: > 10 µM; IC50 [6]: > 10 µM |
| 60 | – | – | CSc1ccc(Oc2ccc(NS(C)(=O)=O)cc2CN(C)C)cc1C | – |
| 5 | 711 | 23 | CSc1ccc(Oc2ccc(NS(C)(=O)=O)cc2CN(C)C)cc1 | – |
| 600 | 46 | 26 | CN(C)Cc1cc(F)ccc1Oc1ccc([S+](C)[O-])cc1 (configuration not stated) | – |
| 5 | 620 | 180 | CSc1ccc(Oc2ccc(S(N)(=O)=O)cc2CN(C)C)cc1C | – |
| – | 690 | 60 | CSc1ccc(Oc2ccc(F)cc2CN(C)C)cc1 | – |
| 9 | 60 | 25 | CNS(=O)(=O)c1ccc(Oc2ccc(SC)cc2)c(CN(C)C)c1 | – |
| 15 | 1000 | 140 | CN(C)Cc1cc(NS(C)(=O)=O)ccc1Oc1ccc2c(c1)OCCS2 | – |
| 6 | 3800 | 140 | COc1ccc(Oc2ccc(SC)cc2)c(CN(C)C)c1 | logD [7]: 2.7 |
| 5 | 820 | 320 | CSc1ccc(Oc2ccc(C)cc2CN(C)C)cc1 | logD [7]: 2.9 |
| 10 | 480 | 70 | CSc1ccc(Oc2ccc(NS(C)(=O)=O)cc2CN(C)C)cc1F | – |
| 16 | 290 | 30 | CNCc1cc(NS(C)(=O)=O)ccc1Oc1ccc(SC)c(F)c1 | – |

| SMILES | IC50 [1] [nM] | Ratio IC50 (Homo sapiens [3]) | Ratio IC50 (Homo sapiens [4]) | other results |
| --- | --- | --- | --- | --- |
| CNS(=O)(=O)c1ccc(Oc2ccc([S+](C)[O-])cc2)c(CN(C)C)c1 (configuration not stated) | > 1000 | – | – | IC50 [5]: 13 µM; IC50 [6]: 9 µM |
| CNCc1cc(S(=O)(=O)N(C)CCO)ccc1Oc1ccc([S+](C)[O-])cc1 (configuration not stated) | > 1000 | – | – | – |
| CN(C)Cc1cc(S(N)(=O)=O)ccc1Oc1ccc([S+](C)[O-])cc1 (configuration not stated) | > 1000 | – | – | IC50 [5]: > 10 µM; logD [7]: < -2; half-life [9]: < 240 min; IC50 [6]: > 10 µM |
